Read-outs that look alike come from different tables or passages of the source.
Assays:
σ1 site [1] = molecular target: T1, σ1 site (Homo sapiens, UniProt Q99720); details: read-out: Affinity for σ1 Site (Ki or KD values); cited from earlier work
SARS-CoV-2 [2] = details: A549-ACE2; cited from earlier work
σ1 site [3] = molecular target: T1, σ1 site; details: cited from earlier work
severe COVID-19 = test: AP-HP observational multicenter study: FIASMA medication use and intubation or death in severe COVID-19; type: in vivo, human; details: for Number of events/Number of patients N/N: each FIASMA class and molecule at baseline, severe COVID-19 (N = 2,846); for Number of events/Number of patients (%): each FIASMA class and molecule; for Univariate Cox regression in 1:2 ratio matched analytic samples HR: vs matched control groups
Protocol: COVID-19 was ascertained by a positive reverse-transcriptase-polymerase-chain-reaction (RT-PCR) test on nasopharyngeal or oropharyngeal swab specimens. Severe COVID-19 was defined as having at least one of the following criteria at hospital admission: respiratory rate >24 breaths/min or <12 breaths/min, resting peripheral capillary oxygen saturation in ambient air <90%, temperature >40° C., systolic blood pressure <100 mm Hg, or high lactate levels >2 mmol/L.^22
AP-HP Health Data Warehouse (‘Entrepôt de Données de Santé (EDS)’) contains all available clinical data on all inpatient visits for COVID-19 to 36 Greater Paris university hospitals. The data included patient demographic characteristics, vital signs, laboratory tests, and RT-PCR test results, medication administration data during the hospitalization for COVID-19, current diagnoses, discharge disposition, ventilator use data, and death certificates.
We obtained the following data for each patient at the time of the hospitalization: sex; age, which was categorized into four classes based on the OpenSAFELY study results^23 (i.e., 18-50, 51-70, 71-80, and 81+); hospital, which was categorized into four classes following the administrative clustering of AP-HP hospitals in Paris and its suburbs based on their geographical location (i.e., AP-HP Centre—Paris University, Henri Mondor University Hospitals and at home hospitalization; AP-HP Nord and Hôpitaux Universitaires Paris Seine-Saint-Denis; AP-HP Paris Saclay University; and AP-HP Sorbonne University); obesity, which was defined as having a body mass index higher than 30 kg/m^2 or an International Statistical Classification of Diseases and Related Health Problems (ICD-10) diagnosis code for obesity (E66.0, E66.1, E66.2, E66.8, and E66.9); self-reported current smoking status; and any medication prescribed according to compassionate use or as part of a clinical trial (e.g., hydroxychloroquine, azithromycin, remdesivir, tocilizumab, sarilumab, or dexamethasone). To take into account possible confounding by indication bias for FIASMA medications, we recorded whether patients had any current diagnosis, based on ICD-10 diagnosis codes recorded during the visit, of neoplasms and diseases of the blood (C00-D89); mental disorders (F01-F99); diseases of the nervous system (G00-G99); cardiovascular disorders (I00-I99); respiratory disorders (J00-J99); digestive disorders (K00-K95); dermatological disorders (L00-L99); diseases of the musculoskeletal system (M00-M99); diseases of the genitourinary system (N00-N99); endocrine disorders (E00-E89); and eye-ear-nose-throat disorders (H00-H95).
FIASMA medication use was defined as receiving at least one FIASMA medication within the first 24 hours of hospital admission. To minimize potential confounding effects of late prescription of FIASMA medications, patients who initiated an FIASMA medication more than 24 hours after hospital admission were excluded from the analyses. Patients who received at study baseline an antipsychotic or a benzodiazepine while being hospitalized in an intensive care unit, possibly as an aid to oral intubation, were also excluded.
Study baseline was defined as the date of hospital admission for COVID-19. The primary end point was the occurrence of intubation and/or death. For patients who died after intubation, the timing of the primary end point was defined as the time of intubation.
We calculated frequencies of all baseline characteristics described above in patients receiving or not receiving an FIASMA medication and compared them using standardized mean differences (SMD). SMD are useful to evaluate between-group differences in baseline characteristic variables independently of their unit of measurement (i.e., for both continuous and categorical variables^26-28). We considered SMD greater than 0.1 as reflecting significant differences, a threshold recommended for declaring imbalance.^27

SARS-CoV-2 infection = test: Retrospective cohort (BJC Healthcare): antidepressant exposure and ED or hospital encounter within 30 days; type: in vivo, human; details: for ED or hospital encounter within 30 days, %: share of exposed outpatients with an encounter after a positive SARS-CoV-2 test; for Unadjusted Odds Ratio, ED or hospital encounter within 30 days / Adjusted Odds Ratio, ED or hospital encounter within 30 days: vs No Antidepressant (Ref); for Unadjusted Odds Ratio, ED or hospital encounter within 30 days: logistic regression; for Adjusted Odds Ratio, ED or hospital encounter within 30 days: multivariable logistic regression, complete cases
pp-VSV-SARS-CoV-2 spike = details: cited from earlier work
SARS-CoV-2 [4] = details: cited from earlier work
SARS-CoV-2 [5] = details: cited from earlier work; remark: listed apart in the source
COVID-19 = details: p<0.05; cited from earlier work
[6] = one-compartment model; cited from earlier work
sigma-1 receptors = sigma-1 receptors (Rattus norvegicus, UniProt Q9R0C9); details: cited from earlier work
[7] = vs no FIASMA medication, Table 33
[8] = paracetamol group matched to FIASMA respiratory system medication, Table 34

T1 sequence (Q99720 whole entry): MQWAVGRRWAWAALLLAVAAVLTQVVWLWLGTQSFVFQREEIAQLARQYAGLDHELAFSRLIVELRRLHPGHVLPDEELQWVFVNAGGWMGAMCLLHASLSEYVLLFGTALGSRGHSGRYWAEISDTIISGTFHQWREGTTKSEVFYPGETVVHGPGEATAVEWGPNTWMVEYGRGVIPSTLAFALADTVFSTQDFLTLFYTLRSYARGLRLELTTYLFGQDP
Chain of sigma-1 receptors (Q9R0C9 whole entry): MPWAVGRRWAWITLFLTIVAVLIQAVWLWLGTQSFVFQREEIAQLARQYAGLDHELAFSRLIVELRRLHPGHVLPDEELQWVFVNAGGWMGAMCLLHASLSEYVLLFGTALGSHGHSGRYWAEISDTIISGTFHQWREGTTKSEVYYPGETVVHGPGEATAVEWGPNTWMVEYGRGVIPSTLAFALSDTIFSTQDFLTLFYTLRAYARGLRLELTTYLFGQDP

COc1ccc2c(c1)[C@]13CCCC[C@@H]1[C@H](C2)N(C)CC3 [Dextromethorphan]
Ki (σ1 site [1]): < 0.5 µM | SARS-CoV-2 viral replication (SARS-CoV-2 [2]): increase viral replication | Function on σ1 Site (σ1 site [3]): Agonist

OCCOCCN1CCN(C(c2ccccc2)c2ccc(Cl)cc2)CC1 (stereo not drawn) [Hydroxyzine]
Number of events/Number of patients N/N (severe COVID-19; Table 33): 11/31

CN(C)C(=O)C(CCN1CCC(O)(c2ccc(Cl)cc2)CC1)(c1ccccc1)c1ccccc1 [Loperamide]
Number of events/Number of patients N/N (severe COVID-19; Table 33): 2/9 | Number of events/Number of patients (%) (severe COVID-19; Table 33): (22.2) % | Univariate Cox regression in 1:2 ratio matched analytic samples HR (severe COVID-19; Table 33): 0.24 | Analysis weighted by inverse-probability-weighting weights HR (severe COVID-19; [7]): 0.15 | Crude Cox regression analysis HR (severe COVID-19; [7]): 0.39 | Multivariable Cox regression analysis HR (severe COVID-19; [7]): 0.25

CC(=O)Nc1ccc(O)cc1 [Paracetamol]
Number of events/Number of patients in the matched groups (%) (severe COVID-19; [8]): (21.4) % | Number of events/Number of patients in the matched groups N/N (severe COVID-19; [8]): 3/14 | Number of events/Number of patients in the matched groups (%) (severe COVID-19; paracetamol group matched to other FIASMA cardiovascular system medications, Table 34): (48.5) %

CN(C)CCC=C1c2ccccc2CCc2ccccc21 [amitriptyline]
ED or hospital encounter within 30 days, % (SARS-CoV-2 infection): 23.6% | Unadjusted Odds Ratio, ED or hospital encounter within 30 days (SARS-CoV-2 infection): 2.90 | Adjusted Odds Ratio, ED or hospital encounter within 30 days (SARS-CoV-2 infection): 1.09 | Infection with pp-VSV-SARS-CoV-2 spike (pp-VSV-SARS-CoV-2 spike; freshly isolated nasal epithelial cells of volunteers treated with a low dose): prevented infection | Infection with SARS-CoV-2 (SARS-CoV-2 [4]; human Caco-2 cells): prevented infection

CN(C)CCC[C@@]1(c2ccc(F)cc2)OCc2cc(C#N)ccc21 [escitalopram]
ED or hospital encounter within 30 days, % (SARS-CoV-2 infection): 16.2% | Infection with pp-VSV-SARS-CoV-2 spike (pp-VSV-SARS-CoV-2 spike; Vero cells): prevent infection | Inhibiting SARS-CoV-2 replication at a concentration of (SARS-CoV-2 [5]): at a concentration of 0.8 μg/ml | Risk of intubation or death because of COVID-19 (COVID-19): lower risk of intubation or death

CNCCC(Oc1ccc(C(F)(F)F)cc1)c1ccccc1 (stereo not drawn) [fluoxetine]
ED or hospital encounter within 30 days, % (SARS-CoV-2 infection): 16.2% | Infection with pp-VSV-SARS-CoV-2 spike (pp-VSV-SARS-CoV-2 spike; Vero cells): prevent infection | Function on σ1 Site (σ1 site [3]): Agonist | Entry and propagation of SARS-CoV-2 (SARS-CoV-2 [4]; Vero-E6 cell lines): efficiently inhibit entry and propagation | volume of distribution [V/F] [6]: 690 L | Risk of intubation or death because of COVID-19 (COVID-19): lower risk of intubation or death

Fc1ccc([C@@H]2CCNC[C@H]2COc2ccc3c(c2)OCO3)cc1 [paroxetine]
ED or hospital encounter within 30 days, % (SARS-CoV-2 infection): 15.1% | Unadjusted Odds Ratio, ED or hospital encounter within 30 days (SARS-CoV-2 infection): 1.67 | Adjusted Odds Ratio, ED or hospital encounter within 30 days (SARS-CoV-2 infection): 0.64 | Univariate Cox regression in 1:2 ratio matched analytic samples HR (severe COVID-19; Table 33): 0.54 | Analysis weighted by inverse-probability-weighting weights HR (severe COVID-19; [7]): 0.57 | Crude Cox regression analysis HR (severe COVID-19; [7]): 0.69 | Ki (sigma-1 receptors): 2.04 µM

CN[C@H]1CC[C@@H](c2ccc(Cl)c(Cl)c2)c2ccccc21 [sertraline]
ED or hospital encounter within 30 days, % (SARS-CoV-2 infection): 17.9% | Function on σ1 Site (σ1 site [3]): Agonist | Number of events/Number of patients N/N (severe COVID-19; Table 33): 7/21 | Number of events/Number of patients (%) (severe COVID-19; Table 33): (33.3) % | Analysis weighted by inverse-probability-weighting weights adjusted for unbalanced covariates HR (severe COVID-19; [7]): 0.82 | Crude Cox regression analysis HR (severe COVID-19; [7]): 0.58 | Multivariable Cox regression analysis HR (severe COVID-19; [7]): 0.67

— patent US20240315989A1 (priority 2021, published 2024)
